From patent publication US10358436B2, “Kinase inhibitors and method of treating cancer” (University Health Network, priority 2010, dated 2019)
Counter-ions that a name gives are not always drawn.

Target: Aurora A (Homo sapiens (Human), UniProt O14965)
Test: Aurora A inhibition assay (Z-Lyte)
Type: biochemical

Aurora A, sequence (O14965 whole entry): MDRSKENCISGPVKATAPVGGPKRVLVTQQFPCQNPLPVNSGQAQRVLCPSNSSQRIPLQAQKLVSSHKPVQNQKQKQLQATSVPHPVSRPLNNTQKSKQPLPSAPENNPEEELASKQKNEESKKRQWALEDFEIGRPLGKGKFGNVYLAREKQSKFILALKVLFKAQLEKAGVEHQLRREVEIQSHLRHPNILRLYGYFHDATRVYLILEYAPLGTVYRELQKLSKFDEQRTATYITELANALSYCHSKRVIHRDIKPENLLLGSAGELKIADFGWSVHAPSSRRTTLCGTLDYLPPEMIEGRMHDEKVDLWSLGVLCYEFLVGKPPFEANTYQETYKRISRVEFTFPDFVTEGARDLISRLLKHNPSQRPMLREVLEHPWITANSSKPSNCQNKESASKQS

SMILES | inhibition at 1 µM [%]
CCN(CC)Cc1c(F)cc(/C=C/c2n[nH]c3cc([C@@H]4C[C@@]45C(=O)Nc4ccccc45)ccc23)cc1F [Example A221, (1R,2S)-(E)-2-(3-(4-((diethylamino)methyl)-3,5-difluorostyryl)-1H-indazol-6-yl)spiro[cyclopropane-1,3′-indolin]-2′-one 2,2,2-trifluoroacetate] | > 50
COc1ccc2c(c1)[C@]1(C[C@H]1c1ccc3c(-c4ccc(OCCN5CCOCC5)cc4)n[nH]c3c1)C(=O)N2 [Example A68, (1R,2S)-5′-methoxy-2-(3-(4-(2-morpholinoethoxy)phenyl)-1H-indazol-6-yl)spiro[cyclopropane-1,3′-indolin]-2′-one 2,2,2-trifluoroacetate salt] | < 50
Cc1ccc(/C=C/c2n[nH]c3cc([C@@H]4C[C@@]45C(=O)Nc4ccccc45)ccc23)cn1 [Example A150, (1R,2S)-2-(3-((E)-2-(6-methylpyridin-3-yl)vinyl)-1H-indazol-6-yl)spiro[cyclopropane-1,3′-indolin]-2′-one] | > 50
O=C1Nc2ccccc2[C@]12C[C@H]2c1ccc2c(/C=C/c3ccc(CN4CCCC4)cc3)n[nH]c2c1 [Example A61, (1R,2S)-(E)-2-(3-(4-(pyrolidin-1-ylmethyl)styryl)-1H-indazol-6-yl)spiro[cyclopropane-1,3′-indolin]-2′-one 2,2,2-trifluoroacetate] | > 50
CN1C(=O)[C@@]2(C[C@H]2c2ccc3c(/C=C/c4ccc(N5CCNCC5)cc4)n[nH]c3c2)c2ccccc21 [Example A90, (1R,2S)-(E)-1′-methyl-2-(3-(4-(piperazin-1-yl)styryl)-1H-indazol-6-yl)spiro[cyclopropane-1,3′-indolin]-2′-one hydrochloride] | > 50
COc1ccc2c(c1)[C@]1(C[C@H]1c1ccc3c(/C=C/c4ccc(CC5CCN(C)CC5)cc4)n[nH]c3c1)C(=O)N2 [Example A82, (1R,2S)-(E)-5′-methoxy-2-(3-(4-((l-methylpiperidin-4-yl)methyl)styryl)-1H-indazol-6-yl)spiro[cyclopropane-1,3′-indolin]-2′-one 2,2,2-trifluoroacetate salt] | > 50
C[C@@H]1CCC[C@H](C)N1Cc1ccc(/C=C/c2n[nH]c3cc([C@@H]4C[C@@]45C(=O)Nc4ccccc45)ccc23)cc1 [Example A201, (1R,2S)-(E)-2-(3-(4-((cis-2,6-dimethylpiperidin-1-yl)methyl)styryl)-1H-indazol-6-yl)spiro[cyclopropane-1,3′-indolin]-2′-one 2,2,2-trifluoroacetate] | > 50
O=C1Nc2ccccc2[C@]12C[C@H]2c1ccc2c(/C=C/c3ccc4c(c3)CNCCO4)n[nH]c2c1 [Example A113, (1R,2S)-2-(3-((E)-2-(2,3,4,5-tetrahydrobenzo[f][1,4]oxazepin-7-yl)vinyl)-1H-indazol-6-yl)spiro[cyclopropane-1,3′-indolin]-2′-one 2,2,2-trifluoroacetate] | > 50
COc1ccc2c(c1)[C@]1(C[C@H]1c1ccc3c(/C=C/c4cc(F)c(CN(C)C)c(F)c4)n[nH]c3c1)C(=O)N2 [Example A216, (1R,2S)-(E)-2-(3-(4-((dimethylamino)methyl)-3,5-difluorostyryl)-1H-indazol-6-yl)-5′-methoxyspiro[cyclopropane-1,3′-indolin]-2′-one 2,2,2-trifluoroacetate] | > 50
N#Cc1ccc(/C=C/c2n[nH]c3cc([C@@H]4C[C@@]45C(=O)Nc4ccccc45)ccc23)cc1 (relative stereo) [Example A54, 4-((E)-2-(6-((1R*,2S*)-2′-oxospiro[cyclopropane-1,3′-indoline]-2-yl)-1H-indazol-3-yl)vinyl)benzonitrile] | > 50
COc1ccc2c(c1)[C@]1(C[C@H]1c1ccc3c(-c4ccc(CO)cc4)n[nH]c3c1)C(=O)N2 (relative stereo) [Example A45, (1R*,2S*)-2-(3-(4-(hydroxymethyl)phenyl)-1H-indazol-6-yl)-5′-methoxyspiro[cyclopropane-1,3′-indolin]-2′-one 2,2,2-trifluoroacetate] | < 50
COc1ccc2c(c1)[C@]1(C[C@H]1c1ccc3c(/C=C/c4ccncc4)n[nH]c3c1)C(=O)N2 [Example A111, (1R,2S)-5′-methoxy-2-(3-((E)-2-(pyridin-4-yl)vinyl)-1H-indazol-6-yl)spiro[cyclopropane-1,3′-indolin]-2′-one 2,2,2-trifluoroacetate] | > 50

The remaining lines, values ahead:

inhibition at 1 µM [%] | SMILES
> 50 | CN(C)Cc1ccc(/C=C/c2n[nH]c3cc([C@@H]4C[C@@]45C(=O)Nc4ccc(F)cc45)ccc23)cc1 (relative stereo) [Example A208, (1R*,2S*)-(E)-2-(3-(4-((dimethylamino)methyl)styryl)-1H-indazol-6-yl)-5′-flurorospiro[cyclopropane-1,3′-indolin]-2′-one 2,2,2-trifluoroacetate]
< 50 | COc1ccc2c(c1)[C@]1(C[C@H]1c1ccc3c(-c4ccc(N5CCC(N6CCOCC6)CC5)cc4)n[nH]c3c1)C(=O)N2 [Example A121, (1R,2S)-5′-methoxy-2-(3-(4-(4-morpholinopiperidin-1-yl)phenyl)-1H-indazol-6-yl)spiro[cyclopropane-1,3′-indolin]-2′-one 2,2,2-trifluoroacetate]
> 50 | COc1ccc2c(c1)[C@]1(C[C@H]1c1ccc3c(/C=C/c4ccc(N5CCOCC5)nc4)n[nH]c3c1)C(=O)N2 (relative stereo) [Example A213, (1R*,2S*)-5′-methoxy-2-(3-((E)-2-(6-morpholinopyridin-3-yl)vinyl)-1H-indazol-6-yl)spiro[cyclopropane-1,3′-indolin]-2′-one 2,2,2-trifluoroacetate]
< 50 | COc1ccc2c(c1)[C@]1(C[C@H]1c1ccc3c(-c4ccc(N5CCC(N(C)C)CC5)cc4)n[nH]c3c1)C(=O)N2 (relative stereo) [Example A119, (1R*,2S*)-2-(3-(4-(4-(dimethylamino)piperidin-1-yl)phenyl)-1H-indazol-6-yl)-5′-methoxyspiro[cyclopropane-1,3′-indolin]-2′-one 2,2,2-trifluoroacetate]
> 50 | O=C1Nc2ccc(F)cc2[C@]12C[C@H]2c1ccc2c(/C=C/c3ccc(CN4CCOCC4)cc3)n[nH]c2c1 [Example A220]
> 50 | COc1ccc2c(c1)[C@]1(C[C@H]1c1ccc3c(/C=C/c4csc(CN(C)C)c4)n[nH]c3c1)C(=O)N2 (relative stereo) [Example A181, (1R*,2S*)-2-(3-4E)-2-(5-((dimethylamino)methyl)thiophen-3-yl)vinyl)-1H-indazol-6-yl)-5′-methoxyspiro[cyclopropane-1,3′-indolin]-2′-one 2,2,2-trifluoroacetate]
< 50 | COc1ccc2c(c1)[C@]1(C[C@H]1c1ccc3c(C#Cc4ccc(CN5CCN(C)CC5)cc4)n[nH]c3c1)C(=O)N2 (relative stereo) [Example A145, (1R*,2S*)-5′-methoxy-2-(3-((4-((4-methylpiperazin-1-yl)methyl)phenyl)ethynyl)-1H-indazol-6-yl)spiro[cyclopropane-1,3′-indolin]-2′-one bis(2,2,2-trifluoroacetate)]
